Data as given in article PMC8151276, “An Integrated Approach toward NanoBRET Tracers for Analysis of GPCR Ligand Engagement” (Molecules, 2021).

What was measured:
Assay type in all cases: binding
AVPR2 = molecular target: T1, AVPR2 (Homo sapiens, UniProt P30518); experiment: NanoBRET screen HiBiT-AVPR2 in HEK293; conditions: AVPR2
T1 construct: purchased Promega (in-house HiBiT-GPCR construct library, NanoBRET)
Method: (§1) Each tracer candidate was screened across the entire library of HiBiT-GPCR constructs using NanoBRET as the detection modality. As depicted in Figure 4A, the specificity of interactions was evaluated through decrease in BRET due to competitive displacement of a bound tracer by excess parental compound. Each tracer was analyzed for binding to each HiBiT-GPCR fusion in the absence and in the presence of competing parental compound. Briefly, HEK293 cells were transfected with HiBiT-GPCR constructs diluted into promoterless DNA to reduce expression and maximize translocation to the cell surface. Each tracer candidate was then screened at concentrations of 1 μM and 0.1 μM across cells expressing these fusions. Cells were treated for 1.5 h with tracer either alone or in the presence of 20 μM competing parental compound (i.e., control). BRET was measured upon addition of purified LgBiT and subsequent complementation with HiBiT genetically fused to a GPCR. The specificity of interactions was assessed through a decrease in BRET signal due to competitive displacement of the bound tracer. To further gauge the robustness of these interactions, the fold response over the control (i.e., BRETtracer/BRETcontrol) was calculated. We chose a 1.5-fold response, which translates to ≥7-fold signal over noise as the minimal threshold required to score an interaction as positive. […]. Below we highlight the screening results obtained for our exemplary fluorescent tracers based on Clozapine, Amitriptyline and AZD1283.
(§2) HiBiT-GPCR DNA constructs were diluted in 10 mM Tris pH 8 to a final concentration of 0.01 μg/μL, arrayed in 96-well plates and stored at −20 °C. For transfection, HEK293 cells were suspended in Opti-MEM (without phenol red) supplemented with 2% fetal bovine serum (Seradigm) and 100 units/mL penicillin–streptomycin (Gibco) at a final concentration of 220,000 cells/mL and dispensed into white 96-well plates at 90 μL/well. Subsequent transfections and screens were carried using an Agilent Bravo Automated Liquid Handling Platform. First, the 96-well HiBiT DNA arrays were diluted 25-fold in Opti-MEM (without serum or phenol red) to a final concentration of 0.0004 μg/μL and 20 μL of the diluted DNAs were transferred into new 96-well plates. Next, promoterless carrier DNA (1 μg/μL) was diluted 25-fold (0.04 μg/μL) and then dispensed into the diluted arrays at 20 μL/well. Following brief mixing, Viafect transfection reagent (Promega) diluted 16-fold into Opti-MEM was dispensed into the plates at 40 μL/well. After mixing by pipetting, plates were incubated for 10 min on the pipetting station deck. The DNA-transfection reagent complexes were then added to plates containing cells. To facilitate the screen, 10 μL of DNA-transfection reagent complexes were added in duplicates to the top 4 and bottom 4 rows, resulting in two identical 48-well arrays per plate. Plates with transfected cells were incubated for 18–20 h at 37 °C/5% CO2. A screen of each tracer across the entire library using two different concentrations requires duplicate plates of transfected cells. Depending on the number of tracers being screened, transfections can be scaled up using the same ratios. The next day, for each tracer, four 20× screening solutions in tracer dilution buffer (Promega) were prepared: two duplicates at final concentration of 20 μM and two duplicates at a final concentration of 2 μM. A competing unmodified compound was added to one of each duplicate at a final concentration of 400 μM. The four resulting solutions were diluted 4-fold in Opti-MEM without serum or phenol red to generate 5× solutions (5 µM and 0.5 µM tracer +/− 100 μM competing compound). To screen the library, a BioTek MultiFlo FX liquid dispenser was used to dispense 22.5 µL of tracer solution to the top 4 rows and 22.5 µL tracer + competing compound solution to the 4 bottom rows. Plates were briefly mixed on an orbital shaker and incubated for 1.5 h at room temperature. […]

SSTR1 = molecular target: T2, SSTR1 (Homo sapiens, UniProt P30872); experiment: NanoBRET screen HiBiT-SSTR1 in HEK293; conditions: SSTR1
T2 construct: purchased Promega (in-house HiBiT-GPCR construct library, NanoBRET)
Method: as §1, §2

P2RY10 = molecular target: T3, P2RY10 (Homo sapiens, UniProt O00398); experiment: NanoBRET screen HiBiT-P2RY10 in HEK293; conditions: P2RY10
T3 construct: purchased Promega (in-house HiBiT-GPCR construct library, NanoBRET)
Method: as §1, §2

T3 sequence (O00398 whole entry, one chain of several): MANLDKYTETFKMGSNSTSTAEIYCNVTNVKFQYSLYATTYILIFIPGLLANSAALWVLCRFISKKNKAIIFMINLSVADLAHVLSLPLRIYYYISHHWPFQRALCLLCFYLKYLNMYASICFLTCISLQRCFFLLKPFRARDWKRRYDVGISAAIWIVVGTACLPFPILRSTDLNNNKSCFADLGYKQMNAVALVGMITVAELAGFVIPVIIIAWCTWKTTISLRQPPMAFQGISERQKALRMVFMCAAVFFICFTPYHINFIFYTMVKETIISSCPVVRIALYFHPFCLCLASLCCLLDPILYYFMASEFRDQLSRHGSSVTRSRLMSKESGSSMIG
T1 sequence (P30518 whole entry): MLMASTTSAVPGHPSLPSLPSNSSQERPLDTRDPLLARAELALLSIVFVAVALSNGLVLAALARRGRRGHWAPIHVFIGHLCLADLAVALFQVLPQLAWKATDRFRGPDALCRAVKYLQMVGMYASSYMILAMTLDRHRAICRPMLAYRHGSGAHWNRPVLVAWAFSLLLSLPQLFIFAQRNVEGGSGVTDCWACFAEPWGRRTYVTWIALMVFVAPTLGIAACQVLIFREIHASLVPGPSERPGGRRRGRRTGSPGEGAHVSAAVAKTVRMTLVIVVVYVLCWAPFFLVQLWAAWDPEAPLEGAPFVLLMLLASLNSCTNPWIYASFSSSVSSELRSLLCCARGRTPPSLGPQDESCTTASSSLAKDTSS
T2 sequence (P30872 whole entry): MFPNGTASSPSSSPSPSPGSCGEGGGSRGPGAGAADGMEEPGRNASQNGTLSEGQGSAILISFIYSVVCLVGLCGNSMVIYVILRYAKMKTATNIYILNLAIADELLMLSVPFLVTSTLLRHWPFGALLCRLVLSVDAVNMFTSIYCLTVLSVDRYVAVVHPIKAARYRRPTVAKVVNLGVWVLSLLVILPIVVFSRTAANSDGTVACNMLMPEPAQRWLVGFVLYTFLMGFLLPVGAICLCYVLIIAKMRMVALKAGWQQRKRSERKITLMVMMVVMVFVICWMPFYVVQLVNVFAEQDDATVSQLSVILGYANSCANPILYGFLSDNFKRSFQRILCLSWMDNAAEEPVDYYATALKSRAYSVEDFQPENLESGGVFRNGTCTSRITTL

Row | SMILES | NanoBRET Fold Response (AVPR2; tracer 0.1μM) | NanoBRET Fold Response (AVPR2; tracer 1μM) | NanoBRET Fold Response (SSTR1; tracer 0.1μM) | NanoBRET Fold Response (SSTR1; tracer 1μM) | NanoBRET Fold Response (P2RY10; tracer 0.1μM) | NanoBRET Fold Response (P2RY10; tracer 1μM) | further results
1 | CN1CCN(C2=Nc3cc(Cl)ccc3Nc3ccc(CNC(=O)CCOCCOCCOCCOCCNC(=O)CCc4ccc5n4[B-](F)(F)[N+]4=C(c6ccc[nH]6)C=CC4=C5)cc32)CC1 [Clozapine-b-2-NB590] |  |  |  |  |  |  | NanoBRET Fold Response (AVPR2; 0.1μM tracer): 1.05; NanoBRET Fold Response (AVPR2; 1μM tracer): 0.95; NanoBRET Fold Response (SSTR1; 0.1μM tracer): 1.00; NanoBRET Fold Response (SSTR1; 1μM tracer): 1.09; NanoBRET Fold Response (P2RY10; 0.1μM tracer): 0.96; NanoBRET Fold Response (P2RY10; 1μM tracer): 1.15
2 | CN1CCN(C2=Nc3cc(Cl)ccc3N(CC(=O)NCCOCCOCCOCCOCCNC(=O)CCc3ccc4n3[B-](F)(F)[N+]3=C(c5ccc[nH]5)C=CC3=C4)c3ccccc32)CC1 [Clozapine-c-2-NB590] |  |  |  |  |  |  | NanoBRET Fold Response (AVPR2; 0.1μM tracer): 0.99; NanoBRET Fold Response (AVPR2; 1μM tracer): 1.00; NanoBRET Fold Response (SSTR1; 0.1μM tracer): 0.98; NanoBRET Fold Response (SSTR1; 1μM tracer): 1.02; NanoBRET Fold Response (P2RY10; 0.1μM tracer): 1.06; NanoBRET Fold Response (P2RY10; 1μM tracer): 0.98
3 | O=C(CCOCCOCCOCCOCCNC(=O)CCc1ccc2n1[B-](F)(F)[N+]1=C(c3ccc[nH]3)C=CC1=C2)NCCCN1CCN(C2=Nc3ccccc3Oc3ccc(Cl)cc32)CC1 [Loxapine-a-2-NB590] | 1.04 | 1.05 | 1.06 | 1.30 | 1.14 | 0.98 | 
4 | COc1ccccc1N1CCN(CCCCN2C(=O)c3ccc(CNC(=O)CCOCCOCCOCCOCCNC(=O)CCc4ccc5n4[B-](F)(F)[N+]4=C(c6ccc[nH]6)C=CC4=C5)cc3C2=O)CC1 [NAN-190-2-NB590] | 1.00 | 0.98 | 0.94 | 1.08 |  | 0.95 | 
5 | COc1ccccc1N1CCN(CCCCN2C(=O)c3ccc(CNC(=O)CCOCCNC(=O)c4ccc(CNC(=O)CCc5ccc6n5[B-](F)(F)[N+]5=C(c7ccc[nH]7)C=CC5=C6)cc4)cc3C2=O)CC1 [NAN-190-3-NB590] | 1.08 | 1.11 | 1.03 | 1.12 | 1.23 | 1.08 | 
6 | O=C(CCc1ccc2n1[B-](F)(F)[N+]1=C(c3ccc[nH]3)C=CC1=C2)NCc1ccc(C(=O)NCCOCCC(=O)N[C@@H]2CC[C@@]3(O)[C@H]4Cc5ccc(O)c6c5[C@@]3(CCN4CC3CC3)[C@H]2O6)cc1 [Naltrexone-3-NB590] | 1.30 | 0.97 | 1.06 | 0.96 | 1.07 | 1.36 | 
7 | Cc1cc2c(s1)Nc1ccccc1N=C2N1CCN(CCCNC(=O)CCOCCOCCOCCOCCNC(=O)CCc2ccc3n2[B-](F)(F)[N+]2=C(c4ccc[nH]4)C=CC2=C3)CC1 [Olanzapine-a-2-NB590] | 0.98 | 0.92 | 1.08 | 1.16 | 0.99 | 1.15 | 
8 | O=C(CCc1ccc2n1[B-](F)(F)[N+]1=C(c3ccc[nH]3)C=CC1=C2)NCc1ccc(C(=O)NCCOCCOCCNCC(O)COc2cccc3ccccc23)cc1 (centres unmarked) [Propranolol-3-NB590] |  |  |  |  |  |  | NanoBRET Fold Response (AVPR2; 0.1μM): 1.00; NanoBRET Fold Response (AVPR2; 1μM): 1.00; NanoBRET Fold Response (SSTR1; 0.1μM): 1.04; NanoBRET Fold Response (SSTR1; 1μM): 1.02; NanoBRET Fold Response (P2RY10; 0.1μM): 1.34; NanoBRET Fold Response (P2RY10; 1μM): 0.95
9 | O=C(CCc1ccc2n1[B-](F)(F)[N+]1=C(c3ccc[nH]3)C=CC1=C2)NCCOCCOCCNC(=O)OCCOCCN1CCN(C2=Nc3ccccc3Sc3ccccc32)CC1 [Quetiapine-a-2-NB590] | 1.03 | 0.93 | 0.92 | 0.92 | 0.94 | 0.95 | 
